As usually defined, the LD50 is the dose at which mortality reaches 50%. Low values mean greater toxicity, high ones lower toxicity.

The text below walks through data of US4107297A, “Antibiotic compound” (The Kitasato Institute, priority 1976, dated 1978).

The structures appear in SMILES notation. Converted amounts (≈) assume the structure as drawn. “And” between values parts separate entries of the source, which are not always exact repeats. Equal values may be shown once. Where a name gives a salt, the structure may show the parent alone.

Data set [1] deals with arteriolar pressure (systolic) in the tail. Description: test for hypertensive effect in rats disposed to spontaneous hypertension.
A further data set relates to Piricularia oryzae. Description: microbe, parasite or virus in culture. The data set is classed as cell-based. The conditions noted are these: pH 6.8.
In a further data set the test system is Cryptococcus neoformans. The experiment in a line: antifungal activity, MIC by agar dilution method. It is filed as cell-based. The settings on record: medium P, pH 6.8. From the text: (§1) Table 1 indicates the antibacterial and antifungal activity of AM-2282 in terms of the minimum inhibitory concentration (mcg/ml) determined by agar dilution method.
(§2) P: Potato extract containing glucose 1.0 % W/V and agar 1.2 % W/V, pH 6.8
Background: In agar dilution, organisms are placed on agar that contains the substance at set levels.

The next data set has as its system Aspergillus fumigatus. The experiment in a line: antifungal activity, MIC by agar dilution method. The data set is classed as cell-based. The settings on record: medium P, pH 6.8.
Description: as §1, §2

For a further data set, the system named is Trichophyton rubrum. The experiment in a line: antifungal activity, MIC by agar dilution method. The data set is classed as cell-based. The conditions noted are these: medium P, pH 6.8.
Description: as §1, §2

The next data set has as its system Candida pseudotropicalis. The experiment in a line: antifungal activity, MIC by agar dilution method. The settings on record: Kluyveromyces marxianus, medium P, pH 6.8. The data set is classed as cell-based.
Description: as §1, §2

For a further data set, the system named is Sclerotinia cinerea. The experiment in a line: antifungal activity, MIC by agar dilution method. It is filed as cell-based. The settings on record: medium P, pH 6.8.
Description: as §1, §2

In another data set the test system is Aspergillus brevipus. Description: antifungal activity, MIC by agar dilution method. It is filed as cell-based. The settings on record: medium P, pH 6.8.
Description: as §1, §2

Data set [2] relates to Trichophyton mentagrophytes. The experiment in a line: antifungal activity, MIC by agar dilution method. It is filed as cell-based. The conditions noted are these: medium P, pH 6.8.
Description: as §1, §2

The next data set has as its system Candida albicans. The experiment in a line: antifungal activity, MIC by agar dilution method. It is filed as cell-based. The conditions noted are these: medium P, pH 6.8.
Description: as §1, §2

Another data set deals with Saccharomyces sake. The experiment in a line: antifungal activity, MIC by agar dilution method. It is filed as cell-based. The conditions noted are these: medium P, pH 6.8.
Description: as §1, §2

The test system of another data set is Aspergillus niger. The experiment in a line: antifungal activity, MIC by agar dilution method. The data set is classed as cell-based. The conditions noted are these: medium P, pH 6.8.
Description: as §1, §2

The test system of a further data set is Microsporum gipseum. Description: antifungal activity, MIC by agar dilution method. It is filed as cell-based. The settings on record: medium P, pH 6.8.
Description: as §1, §2

Data set [3] can be described thus: solubility in various solvent. It is filed as physicochemical.
The next data set deals with Sarcina lutea PCI 1001. Description: antibacterial activity, MIC by agar dilution method. It is filed as cell-based. The settings on record: Micrococcus luteus, PCI1001, medium N, pH 7.0.
Description: as §1
(§3) *N: Peptone 0.5 % W/V, meat extract 0.5 % W/V, agar 1.2 % W/V, pH 7.0.

Data set [4] has as its system Proteus vulgaris IFO 3167. The data set is described as above. It is filed as cell-based. The settings on record: IFO3167, medium N, pH 7.0.
Description: as §1, §3

A further data set concerns Escherichia coli NIJH. Described as above. The data set is classed as cell-based. The conditions noted are these: medium N, pH 7.0.
Description: as §1, §3

For data set [5], the system named is Staphylococcus aureus FDA 209P. Described as above. The data set is classed as cell-based. The settings on record: FDA209P, medium N, pH 7.0.
Description: as §1, §3

The test system of data set [6] is Bacillus substilis PCI 219. The description is as above. The data set is classed as cell-based. The conditions noted are these: PCI219, medium N, pH 7.0.
Description: as §1, §3

Data set [7] deals with Mycobacterium Smegmatis ATCC 607. The description is as above. It is filed as cell-based. The settings on record: Mycolicibacterium smegmatis, ATCC607, medium N, pH 7.0.
Description: as §1, §3

Data set [8] deals with Pseudomonas aeruginosa P-3. The description is as above. The conditions noted are these: P3, medium N, pH 7.0. The data set is classed as cell-based.
Description: as §1, §3

Data set [9] is described as follows: acute toxicity in mice (Behrens-Karber method). The conditions noted are these: mouse, in vivo, ip.
The subject of another data set is Xanthomonas oryzae. The experiment in a line: microbe, parasite or virus in culture. The settings on record: pH 7. It is filed as cell-based.
For another data set, the system named is edema and ulcer. The experiment in a line: activity on edema and ulcer in rats. It is filed as in vivo. As to the method:
The present antibiotic substance is a basic nitrogen-containing compound, viz. a so-called alkaloid-like substance. […] The minimum effective concentration is established to be 1.0 mg/kg.

In the case of `CN[C@@H]1CC2O[C@@](C)([C@@H]1OC)n1c3ccccc3c3c4c(c5c6ccccc6n2c5c31)C(=O)NC4` [Hydrochloride of AM-2282], the “Degree of hypertension (%)” value is -2% and 2% in [1] (0.16 mg/kg, oral, after 1 hr); 1% and 2% in data set [1] (0.16 mg/kg, oral, after 3 hrs); 1% and 2% in data set [1] (0.16 mg/kg, oral, after 5 hrs); 23% and 13% in data set [1] (0.3 mg/kg, oral, after 3 hrs); 11% and 12% in [1] (0.3 mg/kg, oral, after 5 hrs); 13% and 17% in [1] (0.63 mg/kg, oral, after 1 hr). The “Degree of hypertension (%)” value in [1] (0.63 mg/kg, oral, after 3 hrs) is 13% and 24%; in data set [1] (0.63 mg/kg, oral, after 5 hrs) it was 25% and 24%; in [1] (1.25 mg/kg, oral, after 1 hr) it was 15% and 18%; in data set [1] (1.25 mg/kg, oral, after 3 hrs) it was 23% and 25%; in [1] (1.25 mg/kg, oral, after 5 hrs), 31% and 39%. The minimal effective dose in data set [1] (Rattus norvegicus, po, read-out: minimum dose rate at which the hypertensive effect appears) is 0.3 mg/kg.

For the compound `CC(N)(Cc1ccc(O)c(O)c1)C(=O)O` (stereo not drawn) [α-methyl DOPA, reference compound], the “Degree of hypertension (%)” value in [1] (100 mg/kg, after 1 hr) stood at 7%; in data set [1] (100 mg/kg, after 3 hrs), 13%; in [1] (100 mg/kg, after 5 hrs) it was 13%.

Consider `CN[C@@H]1CC2O[C@@](C)([C@@H]1OC)n1c3ccccc3c3c4c(c5c6ccccc6n2c5c31)C(=O)NC4` [AM-2282], for which the MIC with Piricularia oryzae was 0.78 µg/mL (≈ 1.67 µM); against Cryptococcus neoformans, 50 µg/mL (≈ 107 µM); against Aspergillus fumigatus it was 12.5 µg/mL (≈ 26.8 µM); with Trichophyton rubrum, 6.25 µg/mL (≈ 13.4 µM); in the data set with Candida pseudotropicalis it was 3.12 µg/mL (≈ 6.69 µM); against Sclerotinia cinerea, 0.78 µg/mL (≈ 1.67 µM). The MIC against Aspergillus brevipus was 3.12 µg/mL (≈ 6.69 µM); in data set [2], 25 µg/mL (≈ 53.6 µM); in the data set with Candida albicans, 6.25 µg/mL (≈ 13.4 µM); in the data set on Saccharomyces sake, 3.12 µg/mL (≈ 6.69 µM); against Aspergillus niger, 25 µg/mL (≈ 53.6 µM); against Microsporum gipseum it was over 100 µg/mL. Also, the MIC is 25 µg/mL (≈ 53.6 µM) in the data set on Sarcina lutea PCI 1001; over 200 µg/mL in data set [4]; over 200 µg/mL against Escherichia coli NIJH; over 200 µg/mL in [5]; over 200 µg/mL in data set [6]; 50 µg/mL (≈ 107 µM) in [7]. In addition, the MIC was over 200 µg/mL in [8] and 200 µg/mL (≈ 429 µM) in the data set with Xanthomonas oryzae. For the same compound, the Solubility result in data set [3] (in chloroform) is given as “Sparingly soluble”; in data set [3] (in dimethyl formamide) it was “Soluble”; in [3] (in dimethyl sulfoxide) it was “Soluble”; in data set [3] (in ethyl acetate), “Sparingly soluble”; in data set [3] (in fat), “soluble in fat”; in data set [3] (in methanol) it was “Sparingly soluble”. Further, the Solubility entry in data set [3] (in n-butyl acetate) is “Sparingly soluble”; in data set [3] (in n-hexane) it was “Insoluble”; in data set [3] (in petroleum ether) it was “Insoluble”; in data set [3] (in water) it was “Insoluble”. The compound also came in with an LD50 in [9] of 6.6 mg/kg. The minimal effective dose in the data set on edema and ulcer (Rattus norvegicus, read-out: minimum effective concentration (activity on edema and ulcer)) was 1 mg/kg. The “activity on edema and ulcer” value with edema and ulcer (rats) was “exhibit an activity on edema and ulcer”.
